Data as given in US12679837B2, “Aminopyrimidine compound as CDK2/4/6 triple inhibitor” (CISEN PHARMACEUTICAL CO., LTD, priority 2019, dated 2026).

Target: T1, CDK6/CyclinD1 (Homo sapiens, UniProt Q00534)
T1 construct: purchased Carna
Assay: CDK6/CyclinD1 kinase activity test (LANCE Ultra TR-FRET)
Type: biochemical
Details: 250 μM ATP, 25° C., 120 minutes; read-out: Enzyme activity data (IC50) CDK6/cyclinD1
Procedure: Experimental materials: CDK6/CyclinD1 kinase was purchased from Carna, reaction substrate LANCE Ultra ULight™-4E-BP-1 (Thr37146) Peptide and EU-ANTI-P-4EBP1 (THR37/46) were purchased from PerkinElmer. Nivo Multilabel Analyzer (PerkinElmer).
Experimental method: preparation of kinase buffer: The components of the buffer include: 50 mM of hydroxyethylpiperazine […] solution with pH 7.5, 1 mM of EDTA, 10 mM of magnesium chloride, 0.01% lauryl polyoxyethylene ether (Brij-35), 2 mM of enzyme dithiothreitol, kinase buffer dilution enzyme, substrate LANCE Ultra ULight™-4E-BP-1 (Thr37146) Peptide, adenosine triphosphate and inhibitor. […] The reaction system was continued at 25° C. for 120 minutes. After the reaction was complete, a mixture of 5 μL of EDTA and 2× LANCE™ Detection Buffer (1:1) was added to each well, and reacted at 25° C. for 5 minutes, after the reaction was complete, 5 μL of LANCE Ultra Eu-anti-P-4E-BP1(Thr37MS) (4 nM) was added to each well, and reacted at 25° C. for 60 minutes, the reaction signal was detected by Nivo instrument according to the principle of time-resolved fluorescence resonance energy transfer.
Table 1 provides the enzymatic inhibitory activities of the compounds of the present invention on CDK2/CyclinA2, CDK2/CyclinE1, CDK4/CyclinD1, CDK6/CyclinD1, CDK9/CyclinT1.

T1 sequence (Q00534 whole entry): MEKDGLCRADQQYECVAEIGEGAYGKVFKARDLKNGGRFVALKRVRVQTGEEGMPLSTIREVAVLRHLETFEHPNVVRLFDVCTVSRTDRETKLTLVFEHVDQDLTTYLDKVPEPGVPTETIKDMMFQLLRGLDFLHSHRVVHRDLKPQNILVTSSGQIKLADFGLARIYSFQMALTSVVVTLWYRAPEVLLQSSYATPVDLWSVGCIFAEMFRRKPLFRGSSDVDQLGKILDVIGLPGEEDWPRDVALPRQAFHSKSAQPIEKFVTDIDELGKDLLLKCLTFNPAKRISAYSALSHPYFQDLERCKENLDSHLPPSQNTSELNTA
T1 sequence (P24385 whole entry partner): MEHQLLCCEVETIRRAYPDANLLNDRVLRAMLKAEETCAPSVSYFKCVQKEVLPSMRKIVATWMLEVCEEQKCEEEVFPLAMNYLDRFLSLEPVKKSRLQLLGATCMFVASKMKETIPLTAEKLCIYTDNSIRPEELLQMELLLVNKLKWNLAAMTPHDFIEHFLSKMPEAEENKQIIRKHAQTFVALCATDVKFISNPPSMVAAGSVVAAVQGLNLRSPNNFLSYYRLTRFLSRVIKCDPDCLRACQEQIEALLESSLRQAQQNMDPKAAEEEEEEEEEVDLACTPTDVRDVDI

C[C@@]1(O)CCC[C@H]1N1C(=O)CCc2cnc(NC3CCN(S(C)(=O)=O)CC3)nc21 [Compound 1A]
IC50: 1.5 nM
